The text below walks through data of patent US8778403B2, “Diketopiperazine microparticles with defined specific surface areas” (MannKind Corporation, priority 2009, dated 2014).

The nature of this data set: Solubility of FDKP as a function of pH. It counts as physicochemical.

Turning to `O=C(O)/C=C/C(=O)NCCCCC1NC(=O)C(CCCCNC(=O)/C=C/C(=O)O)NC1=O` (centres unmarked) [FDKP, bis-3,6-(N-fumaryl-4-aminobutyl)-2,5-diketo-diketopiperazine], the solubility result (at neutral or basic pH) is on record as “readily soluble” and the solubility result (in acid) is given as “low solubility”.
